Results: patent US20130190275A1, “COMBINED THERAPIES OF ANTIPSYCHOTIC DRUGS AND TETRACYCLINES IN THE TREATMENT OF PSYCHIATRIC DISORDERS” (MOR RESEARCH APPLICATIONS LTD., priority 2006, published 2013)

Columns and labels:
MK801 treated rats = experiment: Morris Water Maze (MWM) task, MK801 animal model of schizophrenia; format: in vivo, rat
Protocol: Morris Water Maze (MWM): The MWM consisted of a water pool (diameter=1.8 m; depth=0.6 m) containing water at 26±1° C. A hidden platform was located 1.5 cm below the water surface. Within the testing room, only distal visuo-spatial cues were available to the rats for location of the submerged platform. A video camera was placed above the center of the pool for tracking the rat, and a video tracking system (Noldus Information Technology b.v., Wageninpen, The Netherlands) with online digital output, directly fed data into a computer and analyzed. Data were analyzed by using an Etho-Vision automated tracking system (Noldus Information Technology).
Fifteen minutes before the behavioral procedures conducted at the fourth day, the subject was injected i.p. with an 0.1 mg/kg dose of MK801 or saline, for a total volume of 1 ml per kg of body weight. Next, the subjects passed the three behavioral procedures, described in the following paragraphs.
The MWM, a hippocampal-dependent visuo-spatial learning task, was used to assess the subjects' spatial learning/memory. The ability of an animal to locate a hidden platform submerged under water by using extra-maze cues from the test environment was examined. The rats were trained in a pool 1.8 m in diameter and 0.6 m high, containing water at 26±1° C. A 10 cm square transparent platform was hidden in a constant position in the pool submerged 1 cm below the water level. Within the testing room only distal visuo-spatial cues were available to the rats for location of the submerged platform.
Rats were given four trials per day, to find the hidden platform (acquisition phase). The escape latency, i.e., the time required by the rat to find and climb onto the platform, was recorded for up to 120 sec. Each rat was allowed to remain on the platform for 30 sec, and was then removed to its home cage.
Morris Water Maze (MWM): Escape latency, the time between placing the rat in the pool until it located the platform, was measured during behavioral testing. The escape latency was analyzed by means of […] repeated measures analysis of variance (ANOVA) with a between-subjects measure of ‘group’ (treatment group) and a within-subjects measure of ‘trail’ (effects amongst groups in the four different trials).
The MWM test was then performed (see FIG. 1 for results). A significant main effect of ‘group’, ‘trail’ and a significant ‘group’×‘trails’ interaction was found in the repeated measured ANOVA for the MWM task [F(5,35)=9.699, p<0.001; F(3,33)=31.551, p<0.001; F(15,91)=1.824, p<0.05; respectively].

[1] = system: patients who experience first psychotic episode; experiment: CANTAB Stockings of Cambridge (SOC), adjuvant study; format: in vivo, human; conditions: atypical antipsychotic drug+minocycline 200 mg/day vs +placebo; p=0.001
Protocol: (§1) The study was carried out in patients who experience first psychotic episode, and has followed the patient for a total duration of 6 months. As the study examines Minocycline as an adjuvant drug, the sample includes patients receiving one of the following atypical anti-psychotic drugs: Risperdal, Zyprexa, Geodon, Seroquel, and Leponex. […] In addition, the subjects were assessed by a battery of computerized neuropsychological tests (CANTAB—Cambridge Neuropsychological Test Automated Battery), measuring attention, memory, and planning. Executive function was tested by two tasks of the CANTAB: planning was tested by a computerized modification of the Tower of London, and working memory by a spatial working memory task. Minocycline was given as an add-on therapy. […] Clinical status was evaluated by the aforementioned scales at the onset of the study, every week for the first 6 weeks, and then once a month for the rest of the study period. Cognitive capabilities were assessed by the neuropsychological battery of tests according to the following schedule: upon initiation of the study (referred to as visit 1 in FIGS. 5-8), 3 months (referred to as visit 2 in FIGS. 5-8), and 6 months (referred to as visit 3 in FIGS. 5-8) after the start of the study. […]

[2] = system: patients who experience first psychotic episode; experiment: CANTAB Spatial Recognition Memory (SRM), adjuvant study; format: in vivo, human; conditions: atypical antipsychotic drug+minocycline 200 mg/day vs +placebo; time x group p<0.01
Protocol: as §1, with “Memory” for “Executive function”, “using spatial and pattern recognition and spatial span” for “by two”, “CANTAB.” for “CANTAB: planning was tested by a computerized modification of the Tower of London, and working memory by a spatial working memory task.”, “therapy. Prior to randomization into minocycline/placebo adjuvant treatment, a preliminary (lead-in phase) screening phase of placebo treatment was undertaken: Placebo was given as an adjuvant to all patients for two weeks.” for “therapy.”

Question: CN(C)c1ccc(O)c2c1C[C@H]1C[C@H]3[C@H](N(C)C)C(O)=C(C(N)=O)C(=O)[C@@]3(O)C(O)=C1C2=O [minocycline] was tested. Which “escape latency, impairments induced by MK801” value (MK801 treated rats; main procedure: minocycline 35 mg/kg x 3 days, MK801 0.1 mg/kg i.p.) did it give?
Answer: reduce the impairments induced by MK801

Question: What about the “escape latency, trail 4” value (MK801 treated rats; minocycline 35 mg/kg before MK801, vs MK801 group, p<0.05) of the same compound?
Answer: significant difference when compared to the MK801 group

Question: And the “escape latency, improvement compared with haloperidol” value (MK801 treated rats; minocycline 35 mg/kg+MK801 vs haloperidol 0.4 mg/kg+MK801)?
Answer: somewhat more significant than that caused by haloperidol

Question: What about the “dose dependence of effect in the MWM task” value (MK801 treated rats; minocycline 20, 25, 30, 35 mg/kg before MK801) of the same compound?
Answer: good dose dependent effect

Question: And the escape latency (MK801 treated rats; minocycline 20 and 25 mg/kg for three consecutive days before MK801, vs saline and MK801 groups)?
Answer: no significant differences with the MK801 treated rats

Question: And the escape latency (MK801 treated rats; minocycline 30 and 35 mg/kg for three consecutive days before MK801, vs saline group)?
Answer: did not differ from the saline treated group

Question: What about the “SOC number of problems solved in minimum moves” value [1] of the same compound?
Answer: improved significantly more than the placebo group

Question: What about the “SRM percent of correct responses” value [2] of the same compound?
Answer: kept relatively steady scores
